From patent US20240309028A1, “PHOSPHOLIPID COMPOUNDS AND METHODS OF MAKING AND USING THE SAME” (Gilead Sciences, Inc., priority 2023, published 2024)

Assays:
Type in all cases: cell-based
[1] = test system: Respiratory syncytial virus recombinant with luciferase (RSV-Luc5); test: NHBE RSV-Luc5 384-well assay (EC50 RSVFLUC NHBE-384); settings: human respiratory syncytial virus, 72 h, read-out: EC50 RSV FLUC NHBE 384 V2 (per Ex. U)
Source text: Example U. NHBE RSV-Luc5 384-Well Assay (EC50 RSVFLUC NHBE-384)
Normal Human Bronchial Epithelial (NHBE) cells were purchased from Lonza (Walkersville, MD Cat #CC2540) and maintained in BEGM Bronchial Epithelial Cell Growth Medium BulletKit (Lonza CC-3170).
Cells were thawed, expanded, and were used for experiments at passage 2. Respiratory syncytial virus recombinant with luciferase (RSV-Luc5) (≥1×107 Infectious Units/ml (IU/ml) determined by TCID50) was purchased from Microbiologics (Saint Cloud, MN). Viral replication was determined in NHBE cells in the following manner.
Compounds are prepared in 100% DMSO in 384-well polypropylene plates (Greiner, Monroe, NC, Cat #784201) with 8 compounds per plate in grouped replicates of 4 at 10 serially diluted concentrations (1:3). The serially diluted compounds were transferred to low dead volume Echo plates (Labcyte, Sunnyvale, CA, Cat #LP-0200).
The test compounds were spotted to 384-well assay plates (Greiner, Monroe, NC, Cat #781091) at 200 nL per well. NHBE cells were harvested and suspended in BEGM Bronchial Epithelial Cell Growth Medium BulletKit and seeded to the pre-spotted assay plates at 5,000 cells per well in 30 μL. RSV-Luc5 virus was diluted in BEGM Bronchial Epithelial Cell Growth Medium BulletKit at 500,000 Infectious Units (IU) per mL and 10 μL per well was added to the assay plates containing cells and compounds, for an MOI of 1. The assay plates were incubated for 3 days at 37° C. and 5% CO2. At the end of incubation, One-Glo reagent (Promega, Madison, WI, Cat #E6120) was prepared. The assay plates and One-Glo reagent were equilibrated to room temperature for at least 15 minutes. 40 μL per well of One-Glo reagent was added and the plates were incubated at room temperature for 15 minutes before reading the luminescence signal on an En Vision multimode plate reader (Perkin Elmer, Waltham, MA). Remdesivir was used as positive control and DMSO was used as negative control. Values were normalized to the positive and negative controls (as 0% and 100% replication, respectively) and data was fitted using non-linear regression analysis by Gilead's dose response tool. The EC50 value for each compound was defined as the concentration reducing the viral replication by 50%.

[2] = test system: Human Rhinovirus 1B (HRVIB); test: H1-HeLa HRV-CTG EC50, HRV1B; settings: Rhinovirus A, 96 h, H1-HeLa cells, MOI 0.5, 4 days, Celltiter-Glo, read-out: EC50 H1-HeLa_HRV1B_HRV-CTG 384-well Assay (per Ex. Z)
Source text: (§1) Example Z: H1-HeLa HRV-CTG EC50
(§2) H1-Hela cell line (ATCC, Manassas, VA, Cat #CRL-1958) was maintained in Dulbecco's […] Essential Medium (DMEM) (Corning, New York, NY, Cat #15-018 CM) supplemented with 10% fetal bovine serum (FBS) (Hyclone, Logan, UT, Cat #SH30071-03), and 1× Penicillin-Streptomycin-L-Glutamine (Corning, New York, NY, Cat #30-009-CI). Cells were passaged 2 times per week to maintain sub-confluent densities and were used for experiments at passage 5-30. The Human Rhinovirus 1B (HRVIB) (ATCC, Manassas, VA, Cat #VR-1645), Human Rhinovirus 14 (HRV14) (ATCC, Manassas, VA, Cat #VR-284), and Human Rhinovirus 16 (HRV16) (ATCC, Manassas, VA, Cat #BR-283) was obtained through ATCC. Viral infection was monitored by determining viability of H1-HeLa cells as described below.
(§3) Test molecules are prepared in 100% DMSO in 384-well polypropylene plates (Greiner, Monroe, NC, Cat #784201) with 8 compounds per plate in grouped replicates of 4 at 10 serially diluted concentrations (1:3). […]
(§4) The test compounds were spotted to 384-well assay plates (Greiner, Monroe, NC, Cat #781091) at 200 nL per well using an Echo acoustic dispenser (Labcyte, Sunnyvale, CA). […] 40 μL per well of Celltiter-Glo reagent was added and the plates were incubated at room temperature for 15 minutes before reading the luminescence signal on an En Vision multimode plate reader (Perkin Elmer, Waltham, MA). […]

[3] = test system: Human Rhinovirus 16 (HRV16); test: H1-HeLa HRV-CTG EC50, HRV16; settings: Rhinovirus A, 96 h; H1-HeLa cells, HRV16, MOI 0.25, 4 days, Celltiter-Glo; read-out: EC50 H1-HeLa_HRV16_HRV-CTG 384-well Assay (per Ex. Z)
Source text: as §1, §2, §3, §4

| Compound | EC50 [1] [nM] | EC50 [2] [nM] | EC50 [3] [nM] |
| --- | --- | --- | --- |
| N#Cc1cc(F)cc(CO[C@H](COCCCCCCCCCCCCCCCCCC(F)(F)F)COP(=O)(O)OC[C@@]2(C#N)O[C@@H](c3ccc4c(N)ncnn34)[C@H](O)[C@@H]2O)c1 [Compound 1, ((2R,3S,4R,5S)-5-(4-aminopyrrolo[2,1-f][1,2,4]triazin-7-yl)-2-cyano-3,4-dihydroxytetrahydrofuran-2-yl)methyl ((R)-2-((3-cyano-5-fluorobenzyl)oxy)-3-((18,18,18-trifluorooctadecyl)oxy)propyl) hydrogen phosphate] | 26 | 12 | 34 |
| N#Cc1cc(F)cc(CO[C@H](CCCCCCCCCCCCCCCCCCC(F)(F)F)COP(=O)(O)OC[C@@]2(C#N)O[C@@H](c3ccc4c(N)ncnn34)[C@H](O)[C@@H]2O)c1 [Compound 2, ((2R,3S,4R,5S)-5-(4-aminopyrrolo[2,1-f][1,2,4]triazin-7-yl)-2-cyano-3,4-dihydroxytetrahydrofuran-2-yl)methyl ((R)-2-((3-cyano-5-fluorobenzyl)oxy)-21,21,21-trifluorohenicosyl) hydrogen phosphate] | 30 | 62 | 91 |
